According to patent US20240000754A1, “METHODS OF TREATMENT OF LIVER FAILURE” (GENFIT, priority 2020, published 2024):

Columns and labels:
[1] = tested on: mice with acetaminophen (APAP) intoxication; assay: Acetaminophen-induced acute liver failure in mice; assay type: in vivo; details: APAP 300 mg/kg i.p., NTZ 50 mg/kg gavage 30 minutes before, 6 hours after APAP
Protocol: Acute liver failure was induced by administration of toxic dose of acetaminophen (APAP) in mice. After a 5-day acclimation period, 8 week-old C57BL/6J male mice (Janvier, France) were stratified into 3 groups of 10 mice according to their body weight. All mice were fasted overnight before the administration of 300 mg/kg APAP by intraperitoneal injection. […] Mice had free access to food and water right after APAP injection. Six hours after APAP injection, blood was collected in all mice on heparin by retro-orbital sinus punction under anesthesia. Liver injury was assessed by plasma aspartate aminotransferase (AST) determined using a Horiba Pentra 400 machine and related Pentra assay kit (Horiba France SAS, France). Animals were sacrificed 24 hours post-APAP administration by cervical dislocation, exsanguinated with saline and liver samples were collected and weighed.

[2] = tested on: cirrhotic rats after LPS injection (ACLF); assay: ACLF model: LPS injection in TAA-cirrhotic rats; assay type: in vivo
Protocol: Male Sprague Dawley rats (175-200 g) (Janvier Labs, France) received intraperitoneal injections of thioacetamide (TAA) 3 times a week at the dose of 150 mg/kg during the first week and then at 200 mg/kg during 14 weeks to induce cirrhosis. Rats were stratified to treatment groups (n=5 per group) based on mean plasma levels of fibrosis markers (alpha-2 macroglobulin and Metallopeptidase Inhibitor 1 (TIMP1)) and liver function tests (plasma total bile acid and albumin) obtained from sublingual blood sampling.
After cirrhosis induction, rats received a single intraperitoneal injection of 0.05 mg/kg lipopolysaccharide (LPS from Escherichia coli O111:64, Sigma-Aldrich) to induce ACLF, one week after TAA administration was stopped. […] Plasma were obtained from sublingual blood sampling just before sacrifice.
The concentration of total bile acids was measured using the appropriate Randox kit for Daytona Plus automate (Randox, cat #BI 3863). In the presence of Thio-NAD, the enzyme 3-alpha hydroxysteroid dehydrogenase (3-a HSD) converts bile acids to 3-keto steroids and Thio-NADH. The reaction is reversible and 3-a HSD could convert 3-keto steroids and Thio-NADH to bile acids and Thio-NAD. In the presence of excess NADH, the enzyme cycling occurs efficiently and the rate of formation of Thio-NADH is determined by measuring specific change of absorbance at 405 nm.

[3] = tested on: rats with BDL+LPS-induced ACLF; assay: Brain edema in BDL+LPS-induced ACLF in rats; assay type: in vivo; details: LPS 1 μg/kg i.p., NTZ 100 mg/kg gavage just before LPS, 3 hours post-LPS
Protocol: BDL surgery was performed on 37 Sprague Dawley rats weighing approximately 270 g at Charles River laboratory (France). After anesthesia with isoflurane (Vetflurane, Alcyon, France), and cutaneous application of 2% lidocaine (Alcyon), a median laparotomy was performed to expose the liver and duodenum. The main bile duct was identified and dissected. After that, the bile duct was ligated in two parts: a first ligation was made in the middle of the bile duct, and the second ligation was made above the entrance of the pancreatic duct. The bile duct was then cut in the middle, to avoid recanalization.
The animals were then transferred to Genfit's animal facility (France) after a minimum of 5 days of recovery post-surgery. […] Unoperated animals were included in the study as healthy controls.
Twenty-two days after BDL surgery, acute decompensation was induced by intraperitoneal administration of 1 μg/kg LPS (Escherichia coli O111:64, Sigma-Aldrich, Germany). Four rats with BDL received phosphate buffer saline (PBS, Fisher Scientific, USA) instead of LPS to be used as BDL controls. Each animal was continuously observed following LPS injection in order to assess the degree of severity of the inflammatory response and pain. […]

[4] = tested on: rats with CCl4+LPS-induced ACLF; assay: Example 8: renal function markers in CCl4+LPS-induced ACLF in rats; assay type: in vivo; details: 15 weeks CCl4 + LPS, NTZ 50 mg/kg BID 3 days, 24 h after LPS
Protocol: Cirrhosis decompensation often associates with alterations of kidney functions. […] Briefly, ACLF was induced by lipopolysaccharide (LPS) injection in rats with advanced liver fibrosis/cirrhosis induced by repeated carbon tetrachloride (CCl4) administrations for 15 weeks.
The protocol study included 4 phases: • 1) Pre-sensitization phase: phenobarbital (P5178, Sigma Aldrich) was added to the drinking water ([…]) of 32 4-week-old male Sprague-Dawley rats (˜200 gr, Janvier Lab) for 2 weeks in order to activate cytochrome enzymes that metabolize CCl4. • 2) Induction of liver fibrosis: chronic liver damages were induced by repeated (twice a week) oral CCl4 (ref: 289116, Sigma Aldrich; diluted in olive oil) administrations (increasing doses starting with 0.10 ml/kg, adding 0.05-0.10 ml/kg at each administration to reach 0.85 ml/kg at 7 weeks and thereafter) for up to 15 weeks, with final doses as follows:
• 3) Treatment phase: after 15 weeks of CCl4 administration, CCl4 gavage was stopped one week before LPS administration.
During the first hours following LPS administration, each animal was continuously observed in order to assess the degree of severity of the inflammatory response and pain. The appearance of the animal (change in fur, skin color), the degree of activity and vigilance (response to a stimulus, opening of the eyelids, activity . . . ), gait and attitude were monitored. Any animal showing evident signs of suffering and close to death was euthanized. […] All surviving animals were euthanized 24 h after LPS challenge for plasma and tissue analyses. […]
Renal injury was evaluated by plasma creatinine, urea and cystatin C concentrations. Plasma creatinine and urea concentrations were measured using the appropriate Randox kits (CR 8316, UR 8334, respectively) for Daytona plus automate (Randox, cat #BR 8377) using the manufacturer instructions. Plasma cystatin C concentration was determined by ELISA (Mouse/Rat Cystatin C Immunoassay Quantikine® ELISA, MSCTC0, R&D Systems).

[5] = tested on: rats with CCl4+LPS-induced ACLF; assay: Example 9: CCl4+LPS-induced acute-on-chronic liver failure in rats; assay type: in vivo
Protocol: This study included 4 phases: • 1) Pre-sensitization phase: phenobarbital ([…]) (ref P5178-25G, Sigma-Aldrich) was added to the drinking water of 4-week-old male Sprague-Dawley rats (˜200 g) for 2 weeks prior to CCl4 administration • 2) Induction phase: hepatic severe fibrosis was induced by repeated oral tetrachlorure (CCl4) administrations (twice a week, increasing doses from 0.10 to 0.85 ml/kg, twice weekly) for 10 or 15 weeks, with the same protocol as the protocol described in example 8. • 3) Treatment phase: after 15 weeks of CCl4 administrations, gavage was stopped one week before LPS administration. […] A last dose (50 mg/kg) was administered 30 minutes just before ACLF induction. • 4) ACLF induction: LPS was administrated i.p. at 0.03 mg/kg.
LPS solution (Escherichia coli O111:64, Sigma-Aldrich, Germany) was prepared under a microbiological safety cabinet and was dissolved in phosphate buffer saline (PBS) at 15 μg/mL, aliquoted and frozen until the day of experiment. LPS was administered at 2 m L/kg to the rats.
38 male Sprague-Dawley rats (Janvier Labs, France) have been allocated to this study. Animals had ad libitum access to water and chow diet (ref E15000-04, Ssniff, Germany) all along the study. After 9 weeks of CCl4 administration, animals were randomly allocated to 2 groups according to ammonia and albumin plasmatic levels (in order to have similar means in the two groups).
ACLF was evaluated, at the end of the study, by biochemical analyses of hepatic and renal injury or function biomarkers.
At the end of the study, blood was collected by sublingual vein puncture under light isoflurane anesthesia and transferred to ethylenediamine tetra-acetic acid (EDTA), serum-gel, and lithium heparin tubes. EDTA and lithium heparin tubes containing blood were rapidly centrifuged and the plasma fraction was collected. Plasma aliquot of heparin lithium were snap frozen in liquid nitrogen and stored at −80° C., EDTA-plasma aliquots were stored at −20° C. and serum-gel tubes were kept at room temperature for 30 minutes, centrifuged and stored at −20° C.
Experimental results are expressed as mean±standard deviation and plotted as bar graphs. Comparison between groups was tested using a Student T test for all variables that follows a normal distribution (#: p<0.05; ##: p<0.01; ###: p<0.001). A Welsh test was applied in case of different variances between groups (3a: p<0.05; cm: p<0.01; man: p<0.001). A log-transformation was applied for plasma ALT and AST in all samples to obtain a normal data distribution. For other non-normally distributed variables, a non-parametric Mann-Whitney test was applied ($: p<0.05; $$: p<0.01; $$$: p<0.001). Differences to the Ctrl week 10 (W10) group are notified, if not otherwise specified.

[6] = tested on: TAA induced cirrhosis in rats; assay: TAA-induced cirrhosis in rats: liver function and fibrosis; assay type: in vivo; details: 16 weeks TAA
HepG2 cells = assay: NH4Cl-induced mortality in HepG2 cells (CytoTox-Glow dead cell protease activity); assay type: cell-based, human; details: HepG2, NTZ 0-5 μM, 60 mM and 120 mM NH4Cl, 14 hours
Protocol: After cell adherence (10 hours), cells were washed with PBS and were incubated in the presence of 0, 60, or 120 mM of NH4Cl (Fluka, France) in DMEM without L-Glutamine and FBS for 14 hours.
Cytotoxicity was measured using CytoTox-Glow™ assay (#G9291, Promega, USA). Briefly, 100 μL of reagent was added per well, and the plates were incubated in the dark at room temperature for 15 min. The CytoTox-Glow™ Assay is a luminescent cytotoxicity assay that measures the relative number of dead cells in cell populations. Luminescence was measured using a Spark microplate reader (#30086376, Tecan, USA). The amount of luminescence (RLU) directly correlates with the percentage of cells undergoing cytotoxic stress.

[7] = tested on: rats with BDL+LPS-induced ACLF; assay: Kidney function in BDL+LPS-induced ACLF in rats; assay type: in vivo; details: NTZ 100 mg/kg gavage, 3 hours post-LPS
Protocol: BDL surgery of rats and acute decompensation were performed as in the previous example.
Renal injury was evaluated by serum cystatin C concentrations determined by ELISA (Mouse/Rat Cystatin C Immunoassay Quantikine® ELISA, MSCTC0, R&D Systems).

[8] = tested on: hepatic transcriptome of mice; assay: Hepatic transcriptomic analysis (RNA-seq) in CDAA/c diet-fed mice treated with NTZ; assay type: in vivo; details: NTZ 100 mg/kg/day versus CDAA/c alone, adjusted p=2.6×10-13
Protocol: Liver injury was induced in 5-6 week-old male C57Bl/6 mice (Janvier Labs, France) by feeding them a cholesterol (1%) supplemented choline-deficient L-amino acid-defined diet (CDAA/c) (Ssniff, Germany) for 12 weeks (n=12). Some animals received from day 1 and throughout the study CDAA/c diet supplemented with NTZ (Interchim, France) (100 mg/kg/day) (n=8). Mice receiving choline supplemented L-amino acid-defined (CSAA) diet served as additional controls (n=6).
Total RNA was isolated from mice livers using Nucleospin® 96 RNA kit (ref 740709.4, Macherey Nagel, France) (n=5). Upon measurement of RNA samples concentration by Multiskan™ GO spectrophotometer (Thermo Scientific, France), the quality was assessed using 2100 Bioanalyser from Agilent (USA). […]
Then reads were aligned on the genome reference (Mus musculus GRCm38.90—GenBank assembly accession GCA_000001635.2) with rnacocktail using hisat2 v.2.1.0 as aligner with default parameters (Sahraeian et al. Nature communications 2017). […]
To identify differentially expressed genes (DE genes), we used R (version 3.4.3) and the DESEq2 library (v. 1.18.1). […] Briefly, the count matrix produced by FeatureCounts was analyzed by the DESeqDataSetFromMatrix( ) function followed by the DEseq( ) function from the DESeq2 library. […]

[9] = NTZ 30 mg/kg/day in diet for last 4 weeks, versus TAA control

CC(=O)Oc1ccccc1C(=O)Nc1ncc([N+](=O)[O-])s1 [NTZ, nitazoxanide]
Plasma AST [1]: greatly reduced AST to a level similar to that with NAC
Circulating (plasma total) bile acids level ([2]; TAA-cirrhotic rats after ACLF induction by LPS, versus vehicle): reduced
Delay of time to death ([2]; TAA-cirrhotic rats, LPS 0.05 mg/kg i.p., NTZ oral gavage 50 mg/kg/day BID 3 days plus last dose 30 minutes before LPS): 1 h
Brain water (brain edema, % of water contained in brain) [3]: remarkably reduced
Plasma creatinine [4]: restoring creatinine, urea and cystatin C levels to the levels of the olive oil controls
Plasma cystatin C [4]: restoring creatinine, urea and cystatin C levels to the levels of the olive oil controls
Plasma urea [4]: restoring creatinine, urea and cystatin C levels to the levels of the olive oil controls
Survival 24 h after LPS injection ([5]; rats, 15 weeks CCl4 + LPS 0.03 mg/kg i.p., NTZ 50 mg/kg BID 3 days, same in vehicle group): 60%
Reduction of serum IFNγ ([5]; rats, CCl4 15 weeks and LPS, p=0.04): 56%
Mortality over 24 hours ([5]; rats, CCl4 + LPS, NTZ 50 mg/kg BID 3 days, same in vehicle group (4/10 rats)): 40%
Change of plasma urea ([5]; surviving rats 24 hours post-LPS, LPS-induced renal impairment, p=0.002): −92%
Change of plasma creatinine ([5]; surviving rats 24 hours post-LPS, LPS-induced renal impairment, p=0.009): −102%
Change of plasma cystatin C ([5]; surviving rats 24 hours post-LPS, LPS-induced renal impairment, p=0.02): −166%
Reduction of plasma AST ([5]; surviving rats 24 hours post-LPS, NTZ versus vehicle, p=0.005): 87%
Reduction of plasma ALT ([5]; surviving rats 24 hours post-LPS, NTZ versus vehicle, p=0.007): 80%
Reduction of total bilirubin ([5]; surviving rats 24 hours post-LPS, plasma, p=0.02): 80%
Restoration of albumin production ([5]; surviving rats 24 hours post-LPS, plasma, p=0.04): 95%
Plasma GGT level ([5]; surviving rats 24 hours post-LPS, LPS vehicle 11.2 U/I): < 6.15 U/I
Collagen proportionate area ([6]; NTZ 30 mg/kg/day for last 4 weeks, TAA control 7.74±0.38%, p=0.77): 7.53±0.64%
Plasma albumin [6, 9]: rescued
Plasma total bilirubin [6, 9]: drastically decreased
Mortality rate (dead cell protease activity) (HepG2 cells): reduced the mortality rate in a dose-dependent manner
Serum cystatin C [7]: drastically reduced cystatin C, almost to the level of healthy controls
Induction of GluI expression [8]: 1.6 fold
